Assay results as given in ChEMBL document CHEMBL1151344, “Potential anticancer agents. XVI. Isolation of bicyclofarnesane sesquiterpenoids from Capsicodendron dinisii” (1980).
In brackets after ≈: the same amount, converted by molar mass. Activity calls are given as the source filed them. The calls are words filed in the database; no cut-off is given here.

Key:
P388 [1] = assay: Cytotoxicity against mouse P388 cells; assay type: functional
9KB = assay: Cytotoxicity against human 9KB cells; assay type: functional, cell-based
P388 [2] = assay: In vivo cytotoxicity against mouse P388 cells; assay type: functional, organism-based
[3] = Cytotoxicity against human 9KB5 cells; assay type: functional; settings: read-out: ED50 (the source's name)

With CC1(C)CCC[C@]2(C)C3=C(COC3=O)[C@H](O)C[C@@H]12 as the compound, how does the Activity (P388 [1]) read?
The Activity was “inactive”.

And the Activity (9KB)?
The Activity was “inactive”.

And the Activity (P388 [2])?
The Activity was “inactive”.

With CC(=O)O[C@@H]1[C@@H](O)C2=C(C(=O)OC2)[C@@]2(C)CCCC(C)(C)[C@H]12 as the compound, how does the Activity (P388 [1]) read?
Its Activity is “inactive”.

What about the Activity (9KB) of the same compound?
The Activity was “inactive”.

What about the Activity (P388 [2]) of the same compound?
Its Activity is “inactive”.

For CC(=O)O[C@@H]1C=C2C(=O)OC[C@]2(O)[C@@]2(C)CCCC(C)(C)[C@H]12 [CINNAMOSMOLIDE], which Activity (P388 [1]) is on record?
The Activity was “inactive”.

What about the EC50 [3] of the same compound?
The EC50 was 1.2 µg/mL (≈ 3.89 µM).

What about the Activity (P388 [2]) of the same compound?
The Activity was “inactive”.

Which results are given for CC(=O)O[C@@H]1C=C(C=O)[C@](O)(C=O)[C@@]2(C)CCCC(C)(C)[C@H]12 [CINNAMODIAL]?
EC50 (P388 [1]; read-out: ED50 (the source's name)): 2.2 µg/mL (≈ 7.13 µM); Activity (P388 [2]): inactive

What does the source list for CC(=O)O[C@@H]1CC2=C(C(=O)OC2)[C@@]2(C)CCCC(C)(C)[C@H]12?
Activity (P388 [1]): inactive; Activity (9KB): inactive; Activity (P388 [2]): inactive
